Laboratory results published in US8420614B2, “Compositions and methods for inhibiting or reversing fibrotic disorders” (Albany Medical College, priority 2007, dated 2013).

Columns and labels:
Assay type in all cases: cell-based, human
NADF [1] = experiment: Floating collagen lattice contraction, NADF; settings: TGF-β1 10 ng/ml; floating collagen lattice three days
Procedure: (§1) Before preparing the gels, 5 ml of BSA (Sigma) solution (0.1% BSA in PBS, filter sterilized) was pipetted into each well of a six-well plate, incubated at 37° C. for 1 hour. 1.4 ml of bovine dermal collagen Vitrogen (Cohesion, Palo Alto, Calif.) was mixed with 0.4 ml of 5×DMEM in a 15 ml centrifuge tube cooled on ice. The pH was adjusted to a range of 7.2-7.5, using a sterile solution of 1N NaOH. The control and modified cells were trypsinized from a confluent tissue culture plate and 0.2 ml of the cell suspension (containing 5×10^5 cells) was added to the collagen solution, gently mixed and poured into a well of the six-well plate. Collagen lattices were allowed to gel for 60 minutes in a 5% CO2 atmosphere at 37° C. After 60 minutes, the collagen lattices were detached from the surface of the well by rimming the lattice with a sterile spatula and gently swirling the six-well plate. 2 ml of serum-free medium was added to each well. Plates were incubated in a 5% CO2 atmosphere at 37° C. To measure contraction, the tissue culture dishes were periodically placed on top of a transparent metric ruler on an opaque background, and the diameters of the lattices were recorded.

SMCA in HTSF = experiment: SMCA expression (western blot, immunostaining), HTSF; settings: TGF-β1 10 ng/ml, 5 days
Procedure: (§2) NADF and HTSF lysates were analyzed for protein expression by western blotting with the following primary antibodies at a concentration of 1:1000: cyclin D1, (BD-Biosciences; DCS-6, San Jose, Calif.), cyclin A, (Santa Cruz Biotech.; H 432, Santa Cruz, Calif.), p21^cip1 (BD-Biosciences; sx-118, San Jose, Calif.), p15^ink4b (Cell Signaling, Danvers, Mass.), Hic-5 (BD Transduction, Franklin Lakes, N.J.), RhoGDI (Santa Cruz Biotech, Santa Cruz, Calif.), H2A (Cell Signaling, Danvers, Mass.) and ERK½ (Santa Cruz Biotech, Santa Cruz, Calif.), Vinculin (Sigma Aldrich), SMCA (Sigma Aldrich), FN (Neomarkers), Collagen type I (Sigma Aldrich), Paxillin (Sigma Aldrich). Western blots were developed using SuperSignal chemiluminescent substrate (Pierce, Rockford, Ill.) and quantitated with a Fluor-S MultiImager and Quantity-One software (Bio-Rad, Hercules, Calif.). Membranes were stripped using Restore Stripping (Pierce, Rockford, Ill.) and reprobed (no more than once) with other antibodies.
(§3) Cells were stained as previously described (Dabiri et al., 2006), with slight modification. Control or modified cells were cultured at 30% confluency in complete medium for 18 hours, then washed with Dulbecco's phosphate-buffered saline and serum-free medium was added, followed by 10 ng/ml of TGF-β1 or 20 ng/ml of anti-TGF-β1 (R&D Systems, Minneapolis, Minn.) where specified. […]

HTSF [2] = experiment: CyQUANT cell growth, HTSF; settings: serum-containing media; anti-TGF-β 20 μg/ml or TGF-β1 10 ng/ml
Procedure: (§4) All cells used in these studies were cultured (37° C., 5% CO2.) in serum-containing media which consisted of Dulbecco's modification of Eagle's Minimum Essential Medium, 10% fetal bovine serum and 1% penicillin-streptomycin (all of which were obtained from Gibco Invitrogen Corporation, Carlsbad, Calif.). NADF were purchased from Clonetics-Cambrex BioScience (Walkersville, Md.). HTSF were isolated from biopsies taken from hypertrophic scars resected therapeutically from pediatric patients at Shriner's Burn Hospital and Massachusetts General Hospital, (Boston, Mass.). Tissue was processed according to the protocol of Ronnov-Jessen and Peterson (1993) and as described in (Dabiri et al., 2006). All tissues were acquired anonymously under protocols approved by the relevant medical and ethical committees of the Shriner's Burn Center in accordance with the Declaration of Helsinki Principles and patients gave their written, informed consent.
(§5) Cell growth was measured using CyQUANT® Cell Proliferation Assay Kit (C-7026, Invitrogen, Carlsbad, Calif.). […] Plates were read on Spectra Max Gemini-EM (Molecular Devices, Sunnyvale, Calif.) with an excitation and emission spectrum 480 nm and 520 nm, respectively.

SMCA in NADF = experiment: SMCA expression (western blot, immunostaining), NADF; settings: TGF-β1 10 ng/ml
Procedure: as §2, §3

[3] = tested on: cyclin A, cyclin D1, p21^cip1, p15^ink4b in NADF; experiment: Western blot of cell cycle proteins, NADF
Procedure: as §2

NADF [4] = experiment: BrdU incorporation, NADF; settings: 24 h BrdU pulse; TGF-β1 10 ng/ml
Procedure: HTSF (5×10^3 cells) or NADF (5×10^3 cells) were plated in serum free media (Dulbecco's […] 1:1, Hams F12 1:1, transferrin 5 μg/ml, insulin 5×10^−7M, ascorbate 0.2 mM, glutamine 1:100, penicillin-streptomycin 1:100) for 18 hrs in Labtek™ chambers (Nalge Nunc International, Naperville, Ill.) at 37° C. Cells were washed three times with Dulbecco's phosphate buffered saline (DPBS) (Gibco Invitrogen International, Carlsbad, Calif.) and to each well DMEM containing serum was added, 10 μg/ml of BrdU (Biodesign International, Saco, Me.), with or without the addition of 10 ng/ml of TGFβ1. In some wells anti-TGF-β (20 μg/ml) was also added as indicated. Cells were incubated (24 hrs), washed with DPBS, fixed with 3.7% formaldehyde (Sigma Chemical Co., St. Louis, Mo.) in DPBS (10 min), permeabilized with 0.5% Triton X-100 (5 min) (Sigma Chemical Co., St. Louis, Mo.), blocked (1 hr) with 2% bovine serum albumin (Sigma Chemical Co., St. Louis, Mo.) in PBS then DNAase (Promega, Madison, Wis.) treated for 30 min. […] Coverslips were mounted in Gelmount (Biomedia Corp., Biomedia Corp., Foster City, Calif.) and slides were analyzed on an Olympus BX60 microscope using 10× objective. […] The percent positive BrdU incorporation was determined by dividing the number of nuclei labeled with both BrdU (green) and Hoescht (blue) by the total number of nuclei (blue)×100.

[5] = tested on: collagen type I and FN in NADF; experiment: Western blot of ECM proteins, NADF; settings: TGF-β1 10 ng/ml, 5 days
Procedure: as §2

NADF [6] = experiment: CyQUANT cell growth, NADF; settings: serum-containing media; anti-TGF-β 20 μg/ml or TGF-β1 10 ng/ml
Procedure: as §4, §5

HTSF [7] = experiment: Floating collagen lattice contraction, HTSF; settings: TGF-β1 10 ng/ml added to Hic-5 siRNA treated HTSF
Procedure: as §1

[8] = tested on: supermature focal adhesions in NADF; experiment: Focal adhesion measurements, NADF; settings: TGF-β1 10 ng/ml for 5 days
Procedure: Cells were stained as previously described (Dabiri et al., 2006), with slight modification. Control or modified cells were cultured at 30% confluency in complete medium for 18 hours, then washed with Dulbecco's phosphate-buffered saline and serum-free medium was added, followed by 10 ng/ml of TGF-β1 or 20 ng/ml of anti-TGF-β1 (R&D Systems, Minneapolis, Minn.) where specified. Cells were allowed to incubate for 5 days. On the fifth day, cells were washed fixed, permeabilized, and blocked for 1 hour. Samples were then incubated sequentially with mAb against vinculin (1:400) (Sigma Chemical Co., St Louis, Mo.), and then with a mixture of goat anti-mouse Alexa Fluor 488 (1:1000) and TRITC-conjugated phalloidin (1:100). […] Images were captured with attached Cooke Sensicam digital camera and deconvolved using Slidebook 3.0.10.3 software (FFTW licensed from Massachusetts Institute of Technology, Cambridge, Mass.).
Focal adhesion measurements were performed as described previously (Dabiri et al., 2006). In brief, cells (n=20) were chosen that were not in contact with any other cell and were well spread. Images were observed using Olympus BX60 microscope equipped with an immersion oil objective (×60/1.25, phase) and captured as described above. Vinculin staining was measured for area (μm^2) of focal adhesion using Image Pro-Plus version 4.5.1.26 (Media Cybermatic, Silver Spring, Md.). […]

Hic-5 = experiment: Western blot of Hic-5 expression, NADF; settings: TGF-β1 10 ng/ml
Procedure: as §2
Either NADF (5×10^3 cells) or HTSF (5×10^3 cells) were cultured in DMEM plus serum for 24 hrs with either TGF-β1 (10 ng/ml) or anti-TGF-β1 (20 μg/ml) where indicated. […] Protein expression was analyzed by western blot, as described above. […]

Substance: TGF-β1: recombinant, active TGF-β1 added exogenously (R&D Systems)
- decrease in collagen diameter by NADF (NADF [1]): 3 fold
- increase in the percentage of positive SMCA cells in HTSF in which Hic-5 was genetically ablated (SMCA in HTSF): 5 fold
- HTSF proliferation (increase in cell number by day 3) (HTSF [2]): did not significantly alter the growth
- increase in percent positive SMCA cells in NADF (SMCA in NADF; 5 days): 7 fold
- expression of SMCA and Hic-5 in NADF (SMCA in NADF; serum free media five days): both SMCA and Hic-5 were upregulated
- cyclin A and cyclin D1 levels in NADF ([3]; 24 h, TGF-β1 10 ng/ml): decreased cyclin A and cyclin D1 levels
- increase in p15^ink4b level in NADF compared to NADF without TGF-β1 ([3]; 24 h, TGF-β1 10 ng/ml): 5.25 fold
- increase in p21^cip1 level in NADF compared to NADF without TGF-β1 ([3]; 24 h, TGF-β1 10 ng/ml): 2.5 fold
- increase in expression of p15^ink4b in NADF ([3]; siRNA experiment, TGF-β1 10 ng/ml for 24 hrs, unaffected by knockdown of Hic-5): 4 fold
- percent BrdU positive nuclei in NADF (NADF [4]): statistically significant decrease in the percent positive nuclei
- expression of collagen and FN in NADF [5]: significantly increased the expression of these ECM proteins
- NADF proliferation (increase in cell number by day 3) (NADF [6]): statistically significant decrease in proliferation
- ability of Hic-5 knocked-down HTSF to contract collagen (HTSF [7]): fully rescued the ability of HTSF to contract collagen
- increase in the percentage of focal adhesions greater than 6 μm^2 in NADF [8]: ~10 fold
- expression of Hic-5 in NADF (Hic-5; 24 h): significantly increased the expression of Hic-5
- expression of Hic-5 in the nucleus in NADF (Hic-5; subcellular fractionation): significantly increased the expression of Hic-5 in the nucleus
